# Reference: ChEMBL document CHEMBL1151713, “S-alkenyl cysteine sulfoxide and its antioxidant properties from Allium cepa var. tropeana (red onion) seeds” (J Nat Prod, 2008)
# Tests used:
# [1] = Antioxidant activity by ferric reducing antioxidant power assay; assay type: functional
# [2] = system: Radical scavenging activity; assay: Antioxidant activity assessed as DPPH radical scavenging activity by Brand-Williams method; assay type: functional
SMILES,Activity [1],Activity [2]
C/C=C/CC[S+]([O-])C[C@@H](N)C(=O)O (stereo partly specified),178 µM,107 µM
O=C1O[C@H]([C@@H](O)CO)C(O)=C1O,824 µM,903 µM
Cc1cc(C(C)(C)C)c(O)c(C(C)(C)C)c1,677 µM,637 µM
